Source: article PMC7556317 (Chembiochem : a European journal of chemical biology, 2009)

How the values were obtained:
[1] = system: Her-2 in SkBr3 cells; experiment: Her-2 depletion in SkBr3 cells as pharmacodynamic marker of cellular efficacy; assay type: cell-based; details: read-out: PD (Her-2 depletion in SkBr3 cells, EC50); SkBr3 cells treated with the inhibitor overnight
[2] = system: BT474 breast tumor cells; details: xenografts bearing BT474 breast tumor cells; cited from earlier work

| EC50 [1] [nM] | SMILES | Effect on tumor in xenografts [2] |
| --- | --- | --- |
| ≤ 500 | CC1=CC(=NOCC(=O)N2CCCCC2)Cc2cc(O)cc(O)c2C(=O)OCCC=CCC1 [Compound A1B3C4D1] | – |
| ≤ 500 | CC1C=CCCOC(=O)c2c(O)cc(O)cc2CC(=NOCC(=O)N2CCCCC2)C=CC1 (stereo not drawn) [Compound A1B4C4D1] | – |
| – | O=C1OCC/C=C/CC/C=C/C(=N/OCC(=O)N2CCCCC2)Cc2c(Cl)c(O)cc(O)c21 [Pochoxime A] | tumor regression |
